Data taken from PMC6979384, “Characterization of the plant homeodomain (PHD) reader family for their histone tail interactions” (Epigenetics & Chromatin, 2020).

Key:
Test in all cases: Histone peptide microarray
Assay type in all cases: binding, human
[1] = system: MLL5; conditions: GST-tagged MLL5; sheet Array Heatmap; each array performed twice, total n = 4
How it was run: (§1)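 Histone peptide library (293 synthetic peptides, single/combinatorial PTMs) arrayed and probed with 0.5 μM purified GST-PHD domain; optimized protocol; quadruplicate mean and SD reported.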

[2] = system: CHD5 (PCC); conditions: GST-tagged CHD5 (PCC = PHD + Dual Chromodomain); sheet Array Heatmap; each array performed twice, total n = 4
How it was run: as §1

[3] = system: PHF21A; conditions: GST-tagged PHF21A; sheet Array Heatmap; each array performed twice, total n = 4
How it was run: as §1

[4] = system: PHF23; conditions: GST-tagged PHF23; sheet Array Heatmap; each array performed twice, total n = 4
How it was run: as §1

[5] = system: ING4; conditions: GST-tagged ING4; sheet Array Heatmap; each array performed twice, total n = 4
How it was run: as §1

[6] = system: ING5; conditions: GST-tagged ING5; sheet Array Heatmap; each array performed twice, total n = 4
How it was run: as §1

[7] = system: KDM4C (TTP); conditions: GST-tagged KDM4C (TTP = Tandem Tudor domain + PHD); sheet Array Heatmap; each array performed twice, total n = 4
How it was run: as §1

[8] = system: ING1; conditions: GST-tagged ING1; sheet Array Heatmap; each array performed twice, total n = 4
How it was run: as §1

[9] = system: PHF13; conditions: GST-tagged PHF13; sheet Array Heatmap; each array performed twice, total n = 4
How it was run: as §1

[10] = system: KDM5B (1); conditions: GST-tagged KDM5B (1); sheet Array Heatmap; each array performed twice, total n = 4
How it was run: as §1

[11] = system: RAG2; conditions: GST-tagged RAG2; sheet Array Heatmap; each array performed twice, total n = 4
How it was run: as §1

[12] = system: CHD4 (PPCC); conditions: GST-tagged CHD4 (PPCC = Dual PHD + Dual Chromodomain); sheet Array Heatmap; each array performed twice, total n = 4
How it was run: as §1

[13] = system: DIDO1; conditions: GST-tagged DIDO1; sheet Array Heatmap; each array performed twice, total n = 4
How it was run: as §1

[14] = system: ING2; conditions: GST-tagged ING2; sheet Array Heatmap; each array performed twice, total n = 4
How it was run: as §1

[15] = system: CHD5 (PPCC); conditions: GST-tagged CHD5 (PPCC = Dual PHD + Dual Chromodomain); sheet Array Heatmap; each array performed twice, total n = 4
How it was run: as §1

[16] = system: PHRF1 (RP); conditions: GST-tagged PHRF1 (RP); sheet Array Heatmap; each array performed twice, total n = 4
How it was run: as §1

[17] = system: BAZ2B; conditions: GST-tagged BAZ2B; sheet Array Heatmap; each array performed twice, total n = 4
How it was run: as §1

[18] = system: KDM7A; conditions: GST-tagged KDM7A; sheet Array Heatmap; each array performed twice, total n = 4
How it was run: as §1

[19] = system: SP140L; conditions: GST-tagged SP140L; sheet Array Heatmap; each array performed twice, total n = 4
How it was run: as §1

[20] = system: BPTF (PB); conditions: GST-tagged BPTF (PB = PHD + Bromodomain); sheet Array Heatmap; each array performed twice, total n = 4
How it was run: as §1

[21] = system: MORC3 (CW); conditions: GST-tagged MORC3 (CW = CW-type Zn-finger); sheet Array Heatmap; each array performed twice, total n = 4
How it was run: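 Binding read as mean relative signal from 4 replicates; microarray held 293 synthetic histone peptides with single or combinatorial PTMs. Each GST-tagged PHD reader was applied at 0.5 μM using the optimized Petell protocol.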

[22] = system: ING3; conditions: GST-tagged ING3; sheet Array Heatmap; each array performed twice, total n = 4
How it was run: as §1

[23] = system: AIRE (PP); conditions: GST-tagged AIRE (PP); sheet Array Heatmap; each array performed twice, total n = 4
How it was run: as §1

[24] = system: TRIM66 (PB); conditions: GST-tagged TRIM66 (PB = PHD + Bromodomain); sheet Array Heatmap; each array performed twice, total n = 4
How it was run: as §1

[25] = system: TAF3; conditions: GST-tagged TAF3; sheet Array Heatmap; each array performed twice, total n = 4
How it was run: as §1

[26] = system: DPF2 (PPC2W2); conditions: GST-tagged DPF2 (PPC2W2 = Dual PHD + C2W2-type Zn-finger); sheet Array Heatmap; each array performed twice, total n = 4
How it was run: as §1

[27] = system: PHF2; conditions: GST-tagged PHF2; sheet Array Heatmap; each array performed twice, total n = 4
How it was run: as §1

[28] = system: KDM5A (1); conditions: GST-tagged KDM5A (1); sheet Array Heatmap; each array performed twice, total n = 4
How it was run: as §1

[29] = system: KDM5B (3); conditions: GST-tagged KDM5B (3); sheet Array Heatmap; each array performed twice, total n = 4
How it was run: as §1

[30] = system: KDM5A (3); conditions: GST-tagged KDM5A (3); sheet Array Heatmap; each array performed twice, total n = 4
How it was run: as §1

[31] = system: PHF8; conditions: GST-tagged PHF8; sheet Array Heatmap; each array performed twice, total n = 4
How it was run: as §1

## H3R2me2a + K4me3: H3 1-20
[1]
  Array Heatmap signal (histone peptide microarray): 0.7481
[2]
  Array Heatmap signal (histone peptide microarray): 0.8429
[3]
  Array Heatmap signal (histone peptide microarray): 0.4989
[4]
  Array Heatmap signal (histone peptide microarray): 0.6448
[5]
  Array Heatmap signal (histone peptide microarray): 0.4758
[6]
  Array Heatmap signal (histone peptide microarray): 0.4004
[7]
  Array Heatmap signal (histone peptide microarray): 0.6181
[8]
  Array Heatmap signal (histone peptide microarray): 0.5767
[9]
  Array Heatmap signal (histone peptide microarray): 0.6893
[10]
  Array Heatmap signal (histone peptide microarray): 0.7318
[11]
  Array Heatmap signal (histone peptide microarray): 0.449
[12]
  Array Heatmap signal (histone peptide microarray): 0.5963
[13]
  Array Heatmap signal (histone peptide microarray): 0.8005
[14]
  Array Heatmap signal (histone peptide microarray): 0.6869
[15]
  Array Heatmap signal (histone peptide microarray): 0.5913
[16]
  Array Heatmap signal (histone peptide microarray): 0.4573
[17]
  Array Heatmap signal (histone peptide microarray): 0.4862
[18]
  Array Heatmap signal (histone peptide microarray): 0.5712
[19]
  Array Heatmap signal (histone peptide microarray): 0.3488
[20]
  Array Heatmap signal (histone peptide microarray): 0.4143
[21]
  Array Heatmap signal (histone peptide microarray): 0.8119
[22]
  Array Heatmap signal (histone peptide microarray): 0.5638
[23]
  Array Heatmap signal (histone peptide microarray): 0.4826
[24]
  Array Heatmap signal (histone peptide microarray): 0.6477
[25]
  Array Heatmap signal (histone peptide microarray): 0.3674
[26]
  Array Heatmap signal (histone peptide microarray): 0.6763
[27]
  Array Heatmap signal (histone peptide microarray): 0.6438
[28]
  Array Heatmap signal (histone peptide microarray): 0.4987
[29]
  Array Heatmap signal (histone peptide microarray): 0.6231
[30]
  Array Heatmap signal (histone peptide microarray): 0.8444
[31]
  Array Heatmap signal (histone peptide microarray): 0.6195

## H3R2me2a + T3p + K4me3 + K9ac + K14ac + K18ac: H3 1-20
[1]
  Array Heatmap signal (histone peptide microarray): 0.5392
[2]
  Array Heatmap signal (histone peptide microarray): 0.7369
[3]
  Array Heatmap signal (histone peptide microarray): 0.4332
[4]
  Array Heatmap signal (histone peptide microarray): 0.5518
[5]
  Array Heatmap signal (histone peptide microarray): 0.4544
[6]
  Array Heatmap signal (histone peptide microarray): 0.3446
[7]
  Array Heatmap signal (histone peptide microarray): 0.4624
[8]
  Array Heatmap signal (histone peptide microarray): 0.5919
[9]
  Array Heatmap signal (histone peptide microarray): 0.5933
[10]
  Array Heatmap signal (histone peptide microarray): 0.6524
[11]
  Array Heatmap signal (histone peptide microarray): 0.2569
[12]
  Array Heatmap signal (histone peptide microarray): 0.601
[13]
  Array Heatmap signal (histone peptide microarray): 0.7634
[14]
  Array Heatmap signal (histone peptide microarray): 0.6041
[15]
  Array Heatmap signal (histone peptide microarray): 0.5374
[16]
  Array Heatmap signal (histone peptide microarray): 0.4697
[17]
  Array Heatmap signal (histone peptide microarray): 0.4718
[18]
  Array Heatmap signal (histone peptide microarray): 0.3252
[19]
  Array Heatmap signal (histone peptide microarray): 0.3444
[20]
  Array Heatmap signal (histone peptide microarray): 0.3469
[21]
  Array Heatmap signal (histone peptide microarray): 0.4346
[22]
  Array Heatmap signal (histone peptide microarray): 0.4704
[23]
  Array Heatmap signal (histone peptide microarray): 0.414
[24]
  Array Heatmap signal (histone peptide microarray): 0.5775
[25]
  Array Heatmap signal (histone peptide microarray): 0.2554
[26]
  Array Heatmap signal (histone peptide microarray): 0.7018
[27]
  Array Heatmap signal (histone peptide microarray): 0.6236
[28]
  Array Heatmap signal (histone peptide microarray): 0.4561
[29]
  Array Heatmap signal (histone peptide microarray): 0.4463
[30]
  Array Heatmap signal (histone peptide microarray): 0.4737
[31]
  Array Heatmap signal (histone peptide microarray): 0.377

## H3R2me2a + T3p + K4me3: H3 1-20
[1]
  Array Heatmap signal (histone peptide microarray): 0.5468
[2]
  Array Heatmap signal (histone peptide microarray): 0.7634
[3]
  Array Heatmap signal (histone peptide microarray): 0.4298
[4]
  Array Heatmap signal (histone peptide microarray): 0.5238
[5]
  Array Heatmap signal (histone peptide microarray): 0.4572
[6]
  Array Heatmap signal (histone peptide microarray): 0.3525
[7]
  Array Heatmap signal (histone peptide microarray): 0.4695
[8]
  Array Heatmap signal (histone peptide microarray): 0.5674
[9]
  Array Heatmap signal (histone peptide microarray): 0.6175
[10]
  Array Heatmap signal (histone peptide microarray): 0.6049
[11]
  Array Heatmap signal (histone peptide microarray): 0.2527
[12]
  Array Heatmap signal (histone peptide microarray): 0.6044
[13]
  Array Heatmap signal (histone peptide microarray): 0.7496
[14]
  Array Heatmap signal (histone peptide microarray): 0.5913
[15]
  Array Heatmap signal (histone peptide microarray): 0.5403
[16]
  Array Heatmap signal (histone peptide microarray): 0.4955
[17]
  Array Heatmap signal (histone peptide microarray): 0.443
[18]
  Array Heatmap signal (histone peptide microarray): 0.3305
[19]
  Array Heatmap signal (histone peptide microarray): 0.3541
[20]
  Array Heatmap signal (histone peptide microarray): 0.3598
[21]
  Array Heatmap signal (histone peptide microarray): 0.479
[22]
  Array Heatmap signal (histone peptide microarray): 0.4974
[23]
  Array Heatmap signal (histone peptide microarray): 0.4234
[24]
  Array Heatmap signal (histone peptide microarray): 0.6445
[25]
  Array Heatmap signal (histone peptide microarray): 0.272
[26]
  Array Heatmap signal (histone peptide microarray): 0.687
[27]
  Array Heatmap signal (histone peptide microarray): 0.6351
[28]
  Array Heatmap signal (histone peptide microarray): 0.4435
[29]
  Array Heatmap signal (histone peptide microarray): 0.5351
[30]
  Array Heatmap signal (histone peptide microarray): 0.5129
[31]
  Array Heatmap signal (histone peptide microarray): 0.3942

## H3R2me2a: H3 1-20 [Peptide H3R2me2a]
[1]
  Array Heatmap signal (histone peptide microarray): 0.5223
[2]
  Array Heatmap signal (histone peptide microarray): 0.7924
[3]
  Array Heatmap signal (histone peptide microarray): 0.4684
[4]
  Array Heatmap signal (histone peptide microarray): 0.5039
[5]
  Array Heatmap signal (histone peptide microarray): 0.442
[6]
  Array Heatmap signal (histone peptide microarray): 0.3271
[7]
  Array Heatmap signal (histone peptide microarray): 0.4374
[8]
  Array Heatmap signal (histone peptide microarray): 0.5498
[9]
  Array Heatmap signal (histone peptide microarray): 0.5929
[10]
  Array Heatmap signal (histone peptide microarray): 0.5237
[11]
  Array Heatmap signal (histone peptide microarray): 0.2465
[12]
  Array Heatmap signal (histone peptide microarray): 0.6459
[13]
  Array Heatmap signal (histone peptide microarray): 0.6992
[14]
  Array Heatmap signal (histone peptide microarray): 0.6004
[15]
  Array Heatmap signal (histone peptide microarray): 0.5177
[16]
  Array Heatmap signal (histone peptide microarray): 0.516
[17]
  Array Heatmap signal (histone peptide microarray): 0.4186
[18]
  Array Heatmap signal (histone peptide microarray): 0.3073
[19]
  Array Heatmap signal (histone peptide microarray): 0.3569
[20]
  Array Heatmap signal (histone peptide microarray): 0.3326
[21]
  Array Heatmap signal (histone peptide microarray): 0.4345
[22]
  Array Heatmap signal (histone peptide microarray): 0.4743
[23]
  Array Heatmap signal (histone peptide microarray): 0.3953
[24]
  Array Heatmap signal (histone peptide microarray): 0.568
[25]
  Array Heatmap signal (histone peptide microarray): 0.2736
[26]
  Array Heatmap signal (histone peptide microarray): 0.6507
[27]
  Array Heatmap signal (histone peptide microarray): 0.5486
[28]
  Array Heatmap signal (histone peptide microarray): 0.4227
[29]
  Array Heatmap signal (histone peptide microarray): 0.4682
[30]
  Array Heatmap signal (histone peptide microarray): 0.4981
[31]
  Array Heatmap signal (histone peptide microarray): 0.3491
